“And” between values parts separate entries of the source, which are not always exact repeats. Equal entries are not always repeated.
System: 439559-082-T-J2-PDC spheroid viability
Assay: Anticancer human tumor 439559-082-T-J2-PDC patient-derived colon adenocarcinoma cell line growth inhibition [POLQ]
Details: spheroids with HUVEC and MSC; for viability, T/C: stronger effect = lower value
Experimental: Multicellular complex tumor spheroid response to Polymerase (POL) inhibitors (novobiocin, ART-558, RP6685) in combination with a variety of drugs and investigational agents in selected tumor cell lines
The POL inhibitors (novobiocin, ART-558, and RP6685) were evaluated both individually and in combination with standard of care and investigational anticancer small molecules within a complex spheroid model of solid tumors. . Complex spheroids include a stromal component modeled by human endothelial cells (HUVEC) and fibroblasts modeled by human mesenchymal stem cells (MSCs). The concentration ranges selected for each drug and investigational agent were based upon clinically achievable concentrations if the clinical Cmax of the agent was known.
Compounds. The drugs and investigational agents: novobiocin (NSC847541), ART-558 (NSC835418), RP-6685 (NSC848927), peposertib (NSC802822), ceralasertib (NSC780249), elimusertib (NSC800525), camonsertib (NSC841442), AZD-1390 (NSC803789), olaparib (NSC753686), talazoparib (NSC767125), rucaparib (NSC756644), sotorasib (NSC818433), MRTX-1133 (NSC836407), SN-38 (NSC673596), topotecan (NSC609699), epotoside (NSC141540), doxorubicin (NSC123127), gemcitabine (NSC613327), 5-fluorouracil (NSC19893), paclitaxel (NSC125973), vemurafenib (NSC761431), MSA-2 (NSC828583), SN-011 (NSC837082), adavosertib (NSC754352), prexasertib (NSC758257), carboplatin (NSC241240) and oxaliplatin (NSC266046), were obtained from the National Cancer Institute (NCI) Developmental Therapeutics Program Chemical Repository (21). The FDA-approved anticancer drug set is available from the Developmental Therapeutics Program at https://dtp.cancer.gov/organization/dscb/obtaining/. […] The stock solutions were prepared in dimethyl sulfoxide (DMSO, Sigma-Aldrich, St. Louis, MO, cat. D2650), except for the platinum compounds which were prepared in saline (Quality Biological, Gaithersburg, MD, cat. 114-055-101), at 800-fold the tested concentration and stored at -70 degrees C prior to their use. All drugs and investigational agents were tested over a range starting from a high concentration at or near the clinical Cmax and decreasing in half-log increments. If the clinical Cmax for an agent had not been determined, the highest concentration tested was 10 microM, except for SN-38, which was tested at a high concentration of 1 microM.
Cell Culture. All cells were maintained in an incubator at 37 degrees C and 5% CO2 with 95% humidity. The PDC lines were cultured according to standard operating procedures established by the NCI PDMR (https://pdmr.cancer.gov). Table 3 of the manuscript, lists the cell lines along with the number of the three cell types plated to form the mct-spheroids and media for tumor cell growth. After thawing, all PDC lines, except 997537-175-T-J1-PDC and 415267-285-R-J2-PDC, were cultured in Matrigel-coated flasks prepared with a working solution of 1X Ham's F-12 nutrient mix, without supplementation (Thermo Fisher Scientific, cat. 11765054), 100 U/mL penicillin-streptomycin (Thermo Fisher Scientific, cat. 15140122), and 2.5% Matrigel (Corning Inc., Corning, NY, cat. 354248) for the first three passages. The two PDC lines 997537-175-T-J1-PDC and 415267-285-R-J2-PDC were cultured on uncoated flasks. The 857933-349-R-J2-PDC line was cultured in 6C/Colon 1B media containing advanced DMEM/F-12 (Thermo Fisher Scientific, cat. 12634028), 10 mM HEPES (Thermo Fisher Scientific, cat. 15630080), 1X GlutaMAX supplement (Thermo Fisher Scientific, cat. 35050061), 0.1 mg/mL primocin (InvivoGen, San Diego, CA, cat. ant-pm-2), 10% defined fetal bovine serum, heat inactivated (HyClone Laboratories Inc., Logan, UT, cat. SH30070.03HI), 50% L-WRN conditioned media (ATCC, cat. CRL-3276), 1.25 mM N-Acetyl-L-cysteine (Sigma-Aldrich, cat. A9165), 10 mM nicotinamide (Sigma-Aldrich, cat. N0636), 1X B-27 supplement (Thermo Fisher Scientific, cat. 17504044), 1X N-2 supplement (Thermo Fisher Scientific, cat. […]
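Also: spheroids exposed to compounds for seven days before readout.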
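For viability, T/C in this document: 100% = DMSO vehicle control viability.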

Q: How did the viability, T/C (compound 0.0316 µM) turn out when CCc1cc2c(N3CCc4c(cc(Cn5ccnc5)cc4-c4cn(C)nc4C(F)(F)F)C3=O)ccnc2c(OC)n1 was run?
A: Its viability, T/C is 96.6% and 87.7% and 94.8%.

Q: And the viability, T/C (compound 0.1 µM)?
A: The viability, T/C was 100% and 94.5% and 93.2%.

Q: What about the viability, T/C (compound 0.316 µM) of the same compound?
A: The viability, T/C was 102% and 101% and 87.4%.

Q: And the viability, T/C (compound 1 µM)?
A: Its viability, T/C is 101% and 95% and 96%.

Q: And the viability, T/C (compound 3.16 µM)?
A: Its viability, T/C is 107% and 95% and 90.8%.

Q: What about the viability, T/C (compound 10 µM) of the same compound?
A: Its viability, T/C is 94.8% and 89.2% and 94.2%.

Q: And the IC50 (curve of compound)?
A: The IC50 was over 10000 nM.

Q: With COc1cccc(OCCCN)c1-c1cc(Nc2cnc(C#N)cn2)n[nH]1 as the compound, how does the viability, T/C (compound 0.00316 µM) read?
A: Its viability, T/C is 99.5% and 95.1% and 102%.

Q: What about the viability, T/C (compound 0.01 µM) of the same compound?
A: Its viability, T/C is 88.5% and 89.2% and 81.1%.

Q: What about the viability, T/C (compound 0.0316 µM) of the same compound?
A: Its viability, T/C is 73.2% and 77.3% and 77.8%.

Q: And the viability, T/C (compound 0.1 µM)?
A: Its viability, T/C is 55.3% and 76.4% and 78.8%.

Q: What about the viability, T/C (compound 0.316 µM) of the same compound?
A: Its viability, T/C is 30.3% and 45.7% and 50.2%.

Q: What about the viability, T/C (compound 1 µM) of the same compound?
A: The viability, T/C was 18.1% and 20.9% and 23%.

Q: What about the IC50 (curve of compound) of the same compound?
A: The IC50 was 118 nM and 296 nM and 345 nM.

Q: For C=CC(=O)N1CCN(c2nc(=O)n(-c3c(C)ccnc3C(C)C)c3nc(-c4c(O)cccc4F)c(F)cc23)C(C)C1 (stereo not drawn), which viability, T/C (compound 0.0316 µM) is on record?
A: Its viability, T/C is 93% and 88.6% and 99.7%.

Q: And the viability, T/C (compound 0.1 µM)?
A: The viability, T/C was 91.5% and 84.4% and 100%.

Q: What about the viability, T/C (compound 0.316 µM) of the same compound?
A: Its viability, T/C is 95.6% and 90.7% and 99.1%.

Q: And the viability, T/C (compound 1 µM)?
A: Its viability, T/C is 96.8% and 92.5% and 105%.

Q: What about the viability, T/C (compound 3.16 µM) of the same compound?
A: Its viability, T/C is 97.7% and 80.5% and 99.9%.

Q: And the viability, T/C (compound 10 µM)?
A: Its viability, T/C is 98.6% and 103% and 108%.

Q: And the IC50 (curve of compound)?
A: Its IC50 is over 10000 nM.

Q: CC(=O)O[C@H]1C(=O)[C@@]2(C)[C@H]([C@H](OC(=O)c3ccccc3)[C@]3(O)C[C@H](OC(=O)[C@H](O)[C@@H](NC(=O)c4ccccc4)c4ccccc4)C(C)=C1C3(C)C)[C@]1(OC(C)=O)CO[C@@H]1C[C@@H]2O was tested. Which viability, T/C (compound 0.0949 µM) did it give?
A: The viability, T/C was 83% and 81.7% and 82.3%.

Q: What about the viability, T/C (compound 0.3 µM) of the same compound?
A: The viability, T/C was 77.9% and 70.6% and 74.8%.

Q: What about the viability, T/C (compound 0.949 µM) of the same compound?
A: Its viability, T/C is 68.7% and 51.8% and 55.5%.

Q: What about the viability, T/C (compound 3 µM) of the same compound?
A: The viability, T/C was 43.4% and 22.5% and 40.4%.

Q: What about the IC50 (curve of compound) of the same compound?
A: Its IC50 is 2240 nM and 1180 nM and 1440 nM.

Q: Which IC50 (curve of first compound, second compound 0.0316 µM) does the source give for CNCc1ccc(-c2[nH]c3cc(F)cc4c3c2CCNC4=O)cc1 + COC1C(OC(N)=O)C(O)C(Oc2ccc3c(O)c(NC(=O)c4ccc(O)c(CC=C(C)C)c4)c(=O)oc3c2C)OC1(C)C here?
A: The IC50 was over 10000 nM.

Q: And the IC50 (curve of first compound, second compound 0.1 µM)?
A: The IC50 was over 10000 nM.

Q: What about the IC50 (curve of first compound, second compound 0.316 µM) of the same compound?
A: Its IC50 is over 10000 nM.

Q: And the IC50 (curve of first compound, second compound 1 µM)?
A: The IC50 was over 10000 nM.

Q: And the IC50 (curve of first compound, second compound 3.16 µM)?
A: Its IC50 is over 10000 nM.

Q: And the IC50 (curve of first compound, second compound 10 µM)?
A: Its IC50 is over 10000 nM.

Q: And the viability, T/C (second compound 0.0316 µM, first compound 0.0316 µM)?
A: Its viability, T/C is 103%.

Q: And the viability, T/C (second compound 0.0316 µM, first compound 0.1 µM)?
A: The viability, T/C was 98.7%.

Q: And the viability, T/C (second compound 0.0316 µM, first compound 0.316 µM)?
A: The viability, T/C was 99.4%.

Q: What about the viability, T/C (second compound 0.0316 µM, first compound 1 µM) of the same compound?
A: The viability, T/C was 101%.

Q: What about the viability, T/C (second compound 0.0316 µM, first compound 3.16 µM) of the same compound?
A: Its viability, T/C is 106%.

Q: What about the viability, T/C (second compound 0.0316 µM, first compound 10 µM) of the same compound?
A: The viability, T/C was 102%.

Q: What about the viability, T/C (second compound 0.1 µM, first compound 0.0316 µM) of the same compound?
A: The viability, T/C was 101%.

Q: And the viability, T/C (second compound 0.1 µM, first compound 0.1 µM)?
A: The viability, T/C was 107%.

Q: And the viability, T/C (second compound 0.1 µM, first compound 0.316 µM)?
A: Its viability, T/C is 91.7%.

Q: What about the viability, T/C (second compound 0.1 µM, first compound 1 µM) of the same compound?
A: The viability, T/C was 99.7%.

Q: What about the viability, T/C (second compound 0.1 µM, first compound 3.16 µM) of the same compound?
A: The viability, T/C was 105%.

Q: And the viability, T/C (second compound 0.1 µM, first compound 10 µM)?
A: Its viability, T/C is 108%.

Q: And the viability, T/C (second compound 0.316 µM, first compound 0.0316 µM)?
A: Its viability, T/C is 104%.

Q: What about the viability, T/C (second compound 0.316 µM, first compound 0.1 µM) of the same compound?
A: The viability, T/C was 96%.

Q: And the viability, T/C (second compound 0.316 µM, first compound 0.316 µM)?
A: Its viability, T/C is 98.3%.

Q: And the viability, T/C (second compound 0.316 µM, first compound 1 µM)?
A: The viability, T/C was 108%.

Q: And the viability, T/C (second compound 0.316 µM, first compound 3.16 µM)?
A: The viability, T/C was 110%.

Q: And the viability, T/C (second compound 0.316 µM, first compound 10 µM)?
A: Its viability, T/C is 105%.

Q: What about the viability, T/C (second compound 1 µM, first compound 0.0316 µM) of the same compound?
A: Its viability, T/C is 108%.

Q: What about the viability, T/C (second compound 1 µM, first compound 0.1 µM) of the same compound?
A: The viability, T/C was 103%.

Q: And the viability, T/C (second compound 1 µM, first compound 0.316 µM)?
A: Its viability, T/C is 106%.

Q: What about the viability, T/C (second compound 1 µM, first compound 1 µM) of the same compound?
A: Its viability, T/C is 98.1%.

Q: And the viability, T/C (second compound 1 µM, first compound 3.16 µM)?
A: Its viability, T/C is 111%.

Q: What about the viability, T/C (second compound 1 µM, first compound 10 µM) of the same compound?
A: Its viability, T/C is 108%.

Q: And the viability, T/C (second compound 3.16 µM, first compound 0.0316 µM)?
A: Its viability, T/C is 108%.

Q: And the viability, T/C (second compound 3.16 µM, first compound 0.1 µM)?
A: The viability, T/C was 103%.

Q: And the viability, T/C (second compound 3.16 µM, first compound 0.316 µM)?
A: Its viability, T/C is 97.4%.

Q: And the viability, T/C (second compound 3.16 µM, first compound 1 µM)?
A: Its viability, T/C is 95.8%.

Q: What about the viability, T/C (second compound 3.16 µM, first compound 3.16 µM) of the same compound?
A: The viability, T/C was 114%.

Q: What about the viability, T/C (second compound 3.16 µM, first compound 10 µM) of the same compound?
A: Its viability, T/C is 105%.

Q: And the viability, T/C (second compound 10 µM, first compound 0.0316 µM)?
A: Its viability, T/C is 99.5%.

Q: And the viability, T/C (second compound 10 µM, first compound 0.1 µM)?
A: The viability, T/C was 93.7%.

Q: What about the viability, T/C (second compound 10 µM, first compound 0.316 µM) of the same compound?
A: The viability, T/C was 95.4%.

Q: What about the viability, T/C (second compound 10 µM, first compound 1 µM) of the same compound?
A: The viability, T/C was 104%.

Q: What about the viability, T/C (second compound 10 µM, first compound 3.16 µM) of the same compound?
A: Its viability, T/C is 115%.

Q: What about the viability, T/C (second compound 10 µM, first compound 10 µM) of the same compound?
A: The viability, T/C was 98.4%.
